Test system: facial Rosacea
Assay: clinical type observations of topical application to facial skin
Assay type: in vivo
Details: pyrithione zinc aqueous solution of 1% concentration strength as sole active ingredient
Method: In usage, the fluid composition of the invention is to be administered topically by a vehicle or carrier medium compatible with application to the skin. A useful regimen would be to a) mix 1 part of a 1% concentration strength pyrithione zinc aqueous solution with 3 parts of a cocoa butter emulsion moisturizer cream carrier; b) apply the fluid composition to the facial area of concern; c) leave the fluid composition for 2-3 minutes at the area of application; and d) rinse it off. […] For a more resistant condition of facial Rosacea, the regimen would be essentially the same—but with an increased concentration strength of pyrithione zinc aqueous solution, as by the addition of further pyrithione zinc (or zinc pyrithione) crystals to the aqueous formulation.

[O-]n1ccccc1=S.[O-]n1ccccc1=S.[Zn+2] [pyrithione zinc, Bis [1-hydroxy-2(1H)-pyridinethionato-O,S] (T-4) zinc]
redness, flushing and inflammation associated with facial Rosacea and skin erythema: significantly reducing the redness, flushing and inflammation

Source: US20180256596A1, “METHOD AND TOPICAL COMPOSITION FOR THE TREATMENT OF ROSACEA AND SKIN ERYTHEMA USING PYRITHIONE ZINC” (priority 2017, published 2018)
